The results in this text go back to patent US12145947B2, “Pyrimidine based modulators and uses thereof” (Quanta Therapeutics, Inc., priority 2022, dated 2024).

In test [1] the target is T1, GST-tagged KRAS-G12D (2-169) (Homo sapiens, UniProt P01116, G12D).
T1 construct: GST-tagged KRAS-G12D (2-169, Reaction Biology, MSC-11-539); purchased Reaction Biology MSC-11-539 (KRAS G12D); MSC-11-502 (SOS1cat)
Kind of test: Nucleotide exchange assay (NEA), SOS-mediated, HTRF, KRAS G12D. Format: biochemical. Conditions: Table 4; IC50 extracted at 30 min. The gist of the method:
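GST-KRAS-G12D (2-169, 5 nM final) with Tb-anti-GST donor was preincubated with compound 1 h at RT (pH 7.3 HEPES buffer, MgCl2, DTT), then SOScat (564-1049, 20 nM) and GTP-DY-647P1 (150 nM) were added. HTRF was read at RT; % inhibition vs DMSO/no-SOS blank, 4-parameter IC50 taken at 30 min.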
On the technique in general: TR-FRET usually uses a lanthanide donor and a delayed reading to cut background.

Test [2] deals with AGS cells (KRAS G12D), phospho-ERK. Kind of test: pERK In Cell Western (ICW) assay (Method B), AGS cells. Conditions: Homo sapiens, Table 4, pERK, 3 hours, read-out: ICW-AGS. Format: cell-based. How it is done:
pERK ICW is a high throughput screening assay to evaluate the cellular potency of mutant KRAS small molecule inhibitors. KRAS mutant cell lines AGS and GP2D (KRAS^G12D) were purchased from ATCC and maintained respectively in RPMI and DMEM medium supplemented with 10% fetal bovine serum and Penicillin/Streptomycin.
Cells grown in exponential phase were trypsinized, resuspended in fresh media, and viable cells were counted using a cell counter with Trypan Blue (BioRad TC20). Cells were seeded into 384-well plate (Greiner 781091) at density of 5,000 cells/well for AGS and 10,000 cells/well for GP2D and allowed to grow overnight in a 37° C. CO2 incubator. The next day, compounds were dispensed into wells with a ½ log, 10-point serial dilution and top concentration of […] using Tecan D300e dispenser and incubated for 3 hours in a 37° C. CO2 incubator. Cells were then fixed with paraformaldehyde (Electron Microscopy Sciences, 15710, 4% final concentration) for 30 min, permeabilized with wash buffer (1×PBS+0.1% Triton X-100) for 30 min and blocked with Odyssey blocking buffer (Li—COR 927-70001) for 1 hour, all at room temperature (RT). Phospho-ERK antibody (CST 4370L) was diluted 1:500 in Odyssey blocking+0.2% Tween 20 and incubated with cells overnight at 4° C. The next day, plates were washed 5× with wash buffer, incubated with IRDye 800 CW, Goat anti-Rabbit secondary antibody (Li—COR 926-32211, 1:500) and DRAQ5 (CST 4084L, 1:5,000) diluted in Odyssey blocking+0.2% Tween 20 for 1 hour, washed 5×, and imaged on an Odyssey CLx imaging system.
For data analysis, signal intensities from 800 (phosphor-ERK) and 700 (DRAQ5) channels were extracted, and phospho-ERK signals were normalized to DRAQ5 signals for each well and percent of DMSO control values were computed. Data were then imported into Graphpad Prism to compute half-maximal inhibitory concentrations (IC50) using a 4-parameter variable slope model. Z-factor for each plate was computed from signals derived from wells treated with either DMSO or […] of Trametinib. AGS pERK ICW (Method B) IC50 (uM) values of selected compounds are depicted in Table 2 with compounds having a value 0.001 uM to 0.01 uM as ++++; >0.01 uM to 0.1 uM as +++; >0.1 uM to 1 uM as ++; 1 uM to 10 uM as + and >10 uM as NA.

T1 sequence (P01116 2-169 isoform P01116-2 G12D): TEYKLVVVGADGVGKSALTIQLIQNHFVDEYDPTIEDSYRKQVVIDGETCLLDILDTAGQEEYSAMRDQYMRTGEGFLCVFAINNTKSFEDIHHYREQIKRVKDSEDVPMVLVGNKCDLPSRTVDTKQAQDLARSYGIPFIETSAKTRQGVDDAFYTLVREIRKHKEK

For the compound `N#Cc1c(N2C[C@H]3CC[C@@H](C2)N3)nc(OCc2ccn[nH]2)nc1N1CC2(CCc3sc(N)c(C#N)c32)C1` [Compound 79, 2-amino-1′-[5-cyano-6-[(1R,5S)-3,8-diazabicyclo[3.2.1]octan-3-yl]-2-(1H-pyrazol-5-ylmethoxy)pyrimidin-4-yl]spiro[5,6-dihydrocyclopenta[b]thiophene-4,3′-azetidine]-3-carbonitrile], the values for the IC50 in test [1] and in test [2] were < 10 nM and 10 to 100 nM, respectively.

In the case of `N#Cc1c(N2CC3(CCc4sc(N)c(C#N)c43)C2)nc(OC[C@@]23CCCN2C[C@H](F)C3)nc1N1CCC[C@]2(C1)NC(=O)NC2=O` [Compound 11, 2-amino-1′-[5-cyano-6-[(5R)-2,4-dioxo-1,3,9-triazaspiro[4.5]decan-9-yl]-2-[[(2R,8S)-2-fluoro-1,2,3,5,6,7-hexahydropyrrolizin-8-yl]methoxy]pyrimidin-4-yl]spiro[5,6-dihydrocyclopenta[b]thiophene-4,3′-azetidine]-3-carbonitrile], the IC50 in test [1] was < 10 nM; in test [2], 1000 to 10000 nM.

For `CN(C)C(=O)c1cc2n(n1)CCCN(c1nc(OC[C@@]34CCCN3C[C@H](F)C4)nc(N3CC4(CCc5sc(N)c(C#N)c54)C3)c1C#N)C2` [Compound 8, 5-[6-(2-amino-3-cyano-spiro[5,6-dihydrocyclopenta[b]thiophene-4,3′-azetidine]-1′-yl)-5-cyano-2-[[(2R,8S)-2-fluoro-1,2,3,5,6,7-hexahydropyrrolizin-8-yl]methoxy]pyrimidin-4-yl]-N,N-dimethyl-4,6,7,8-tetrahydropyrazolo[1,5-a][1,4]diazepine-2-carboxamide], the IC50 in test [1] is < 10 nM; in test [2], 10 to 100 nM.

Consider `N#Cc1c(N)sc2c1C1(CC2)CN(c2nc(OCC3(CN4CCOCC4)CC3)nc(N3C[C@H]4CC[C@@H](C3)N4)c2F)C1` [Compound 22, 2-amino-1′-[6-(3,8-diazabicyclo[3.2.1]octan-3-yl)-5-fluoro-2-[[1-(morpholinomethyl)cyclopropyl]methoxy]pyrimidin-4-yl]spiro[5,6-dihydrocyclopenta[b]thiophene-4,3′-azetidine]-3-carbonitrile], for which the IC50 in test [1] is < 10 nM; in test [2], 10 to 100 nM.

For the compound `N#Cc1c(N)sc2c1C1(CC2)CN(c2nc(OC[C@@]34CCCN3C[C@H](F)C4)nc(N3CCC[C@]4(C3)NC(=O)NC4=O)c2F)C1` [Compound 7, 2-amino-1′-[6-[(5R)-2,4-dioxo-1,3,9-triazaspiro[4.5]decan-9-yl]-5-fluoro-2-[[(2R,8S)-2-fluoro-1,2,3,5,6,7-hexahydropyrrolizin-8-yl]methoxy]pyrimidin-4-yl]spiro[5,6-dihydrocyclopenta[b]thiophene-4,3′-azetidine]-3-carbonitrile], the IC50 was < 10 nM in test [1] and 1000 to 10000 nM in test [2].

Consider `N#Cc1c(N2C[C@H]3CC[C@@H](C2)N3)nc(OCC2(CN3CCOCC3)CC2)nc1N1CC2(CCCCc3sc(N)c(C#N)c32)C1` [Compound 70, 2-amino-1′-[5-cyano-2-[[1-(morpholinomethyl)cyclopropyl]methoxy]-6-[(1R,5S)-3,8-diazabicyclo[3.2.1]octan-3-yl]pyrimidin-4-yl]spiro[5,6,7,8-tetrahydrocyclohepta[b]thiophene-4,3′-azetidine]-3-carbonitrile], for which the IC50 in test [1] is < 10 nM; in test [2], 10 to 100 nM.

Regarding `Cc1noc(-c2nn3c(c2Cl)CN(c2nc(OC[C@@]45CCCN4C[C@H](F)C5)nc(N4CC5(CCc6sc(N)c(C#N)c65)C4)c2C#N)CCC3)n1` [Compound 17, 2-amino-1′-[6-[3-chloro-2-(3-methyl-1,2,4-oxadiazol-5-yl)-4,6,7,8-tetrahydropyrazolo[1,5-a][1,4]diazepin-5-yl]-5-cyano-2-[[(2R,8S)-2-fluoro-1,2,3,5,6,7-hexahydropyrrolizin-8-yl]methoxy]pyrimidin-4-yl]spiro[5,6-dihydrocyclopenta[b]thiophene-4,3′-azetidine]-3-carbonitrile], the IC50 was < 10 nM in test [1] and 100 to 1000 nM in test [2].

For `C[C@H](Oc1nc(N2C[C@H]3CC[C@@H](C2)N3)c(C#N)c(N2CC3(CCc4sc(N)c(C#N)c43)C2)n1)[C@@H]1CCCN1C` [Compound 88, 2-amino-1′-[5-cyano-6-[(1R,5S)-3,8-diazabicyclo[3.2.1]octan-3-yl]-2-[(1S)-1-[(2S)-1-methylpyrrolidin-2-yl]ethoxy]pyrimidin-4-yl]spiro[5,6-dihydrocyclopenta[b]thiophene-4,3′-azetidine]-3-carbonitrile], the IC50 in test [1] lay in the range of 10 to 100 nM; in test [2], 1000 to 10000 nM.

Take `Cn1c(-c2nn3c(c2Cl)CN(c2nc(OC[C@@]45CCCN4C[C@H](F)C5)nc(N4CC5(CCc6sc(N)c(C#N)c65)C4)c2C#N)CCC3)nc2c(F)cccc21` [Compound 32, 2-amino-1′-[6-[3-chloro-2-(4-fluoro-1-methyl-benzimidazol-2-yl)-4,6,7,8-tetrahydropyrazolo[1,5-a][1,4]diazepin-5-yl]-5-cyano-2-[[(2R,8S)-2-fluoro-1,2,3,5,6,7-hexahydropyrrolizin-8-yl]methoxy]pyrimidin-4-yl]spiro[5,6-dihydrocyclopenta[b]thiophene-4,3′-azetidine]-3-carbonitrile]: the results for the IC50 in test [1] and in test [2] were < 10 nM and 100 to 1000 nM, respectively.

Take `CN(C)C(=O)c1nn2c(c1Cl)CN(c1nc(OC[C@@]34CCCN3C[C@H](F)C4)nc(N3CC4(CCc5sc(N)c(C#N)c54)C3)c1F)CCC2` [Compound 9, 5-[6-(2-amino-3-cyano-spiro[5,6-dihydrocyclopenta[b]thiophene-4,3′-azetidine]-1′-yl)-5-fluoro-2-[[(2R,8S)-2-fluoro-1,2,3,5,6,7-hexahydropyrrolizin-8-yl]methoxy]pyrimidin-4-yl]-3-chloro-N,N-dimethyl-4,6,7,8-tetrahydropyrazolo[1,5-a][1,4]diazepine-2-carboxamide]: the IC50 was < 10 nM in test [1] and 100 to 1000 nM in test [2].

As to `CO[C@H]1CN(CC2(COc3nc(N4C[C@H]5CC[C@@H](C4)N5)c(C#N)c(N4CC5(CCc6sc(N)c(C#N)c65)C4)n3)CC2)C[C@@H]1F` [Compound 81, 2-amino-1′-[5-cyano-6-[(1R,5S)-3,8-diazabicyclo[3.2.1]octan-3-yl]-2-[[1-[[(3S,4S)-3-fluoro-4-methoxy-pyrrolidin-1-yl]methyl]cyclopropyl]methoxy]pyrimidin-4-yl]spiro[5,6-dihydrocyclopenta[b]thiophene-4,3′-azetidine]-3-carbonitrile], the IC50 in test [1] was < 10 nM; in test [2] it was 100 to 1000 nM.

As to `CN(CCOc1nc(N2C[C@H]3CC[C@@H](C2)N3)c(C#N)c(N2CC3(CCc4sc(N)c(C#N)c43)C2)n1)C1CCC1` [Compound 48, 2-amino-1′-[5-cyano-2-[2-[cyclobutyl(methyl)amino]ethoxy]-6-[(1R,5S)-3,8-diazabicyclo[3.2.1]octan-3-yl]pyrimidin-4-yl]spiro[5,6-dihydrocyclopenta[b]thiophene-4,3′-azetidine]-3-carbonitrile], the IC50 fell in the range of 10 to 100 nM in test [1] and 1000 to 10000 nM in test [2].

As for `N#Cc1c(N2C[C@H]3CC[C@@H](C2)N3)nc(OC[C@@]23CCCN2C[C@H](F)C3)nc1N1CC2(CCc3sc(N)c(C#N)c32)C1` [Compound 25, 2-amino-1′-[5-cyano-6-(3,8-diazabicyclo[3.2.1]octan-3-yl)-2-[[(2R,8S)-2-fluoro-1,2,3,5,6,7-hexahydropyrrolizin-8-yl]methoxy]pyrimidin-4-yl]spiro[5,6-dihydrocyclopenta[b]thiophene-4,3′-azetidine]-3-carbonitrile], the figures for the IC50 in test [1] and in test [2] were < 10 nM and 10 to 100 nM, respectively.

As for `N#Cc1c(N2C[C@H]3CC[C@@H](C2)N3)nc(OCC2(CN3CCOCC3)CC2)nc1N1CC2(C=CCc3sc(N)c(C#N)c32)C1` [Compound 86, 2-amino-1′-[5-cyano-2-[[1-(morpholinomethyl)cyclopropyl]methoxy]-6-[(1R,5S)-3,8-diazabicyclo[3.2.1]octan-3-yl]pyrimidin-4-yl]spiro[7H-benzothiophene-4,3′-azetidine]-3-carbonitrile], the figures for the IC50 in test [1] and in test [2] were < 10 nM and 10 to 100 nM, respectively.
